# Patent publication US20100241219A1, “MEDICAMENT DELIVERY ARTICLE, ACCESSORY & SYSTEM” (ABBEYMOOR MEDICAL , INC, priority 2005, published 2010)
# Legend:
# [1] = Dye penetration from coated stents into excised human prostate tissue; settings: dye bands on stent in excised prostate, 37° C., after 48 hours
# Source text: As to materials, acidic, basic or lipophilic dyes, with molecular weights in the range of 3-400, were used, including: crystal violet (MW 408); basic Nile blue (MW 300); Nile red lipophilic; oil red O lipophilic; erythrosin (MW 890) acidic; and, methylene blue (MW 319) acidic. Mitoxantrone, and ciprofloxacin were likewise tested. The dyes and agents were mixed in a thermoplastic polyurethane (TPU) matrix comprising of 30/70 weight ratio of Carbothane® 72D, an aliphatic, polycarbonate based TPU, to Tecophil®, a hydrophilic, aliphatic, polyether-based TPU (Noveon, Inc.) in a 50/50 mixture of DMAC and THF. The polymers were prepared, 5% by weight, with dyes or agents added to the mixture as an additional 1% by weight.
# Human prostate tissue was obtain postmortem, and within 24 hours thereof, and flash froze. The tissue was thereafter thawed at ambient temperature, and used within 12 hours. The tissue was not fixed.
# Six dyes, namely, methylene blue, crystal violet, a combination of Nile blue and Nile red, oil red O, and erythrosin were coated onto two stents in the form of 3 mm bands or rings. One stent was coated with both mitoxantrone, and ciprofloxacin. Thereafter, the stents were placed in a phosphate buffered Ringer's solution with 1% virocide into excised prostates for 24 and 48 hours at 37° C. […]
# [2] = Dye penetration from polyurethane coating on silicone sheets into calf liver tissue; assay type: in vitro ADME; settings: 1% dye in TPU matrix on silicone rubber sheet placed against calf liver for 24 or 48 hours
# Experimental: Mitoxantrone, and ciprofloxacin were likewise tested.
# Dyes and drugs were first coated onto silicone rubber sheets as droplets, and dried at 70° C. overnight. To gain a first approximation of the ability of the dyes to penetrate tissue, the sheets were placed against the outer membrane of calf liver, either for 24 or 48 hours. The tissue was placed on top of the sheet and supplied with nothing more that the pressure of the tissue against the sheet.
Structure (SMILES),staining of prostatic tissue [1],penetration / staining of liver tissue [2]
O.O=C([O-])c1ccccc1-c1c2cc(I)c(=O)c(I)c-2oc2c(I)c([O-])c(I)cc12.[Na+].[Na+] [erythrosin],approximately equivalent,
Cc1ccc(C)c(N=Nc2cc(C)c(N=Nc3c(O)ccc4ccccc34)cc2C)c1 [oil red O],staining the least,only mildly stained the tissue
CCN(CC)c1ccc2nc3c4ccccc4c(=O)cc-3oc2c1 [Nile red],,only mildly stained the tissue
CN(C)c1ccc(C(=C2C=CC(=[N+](C)C)C=C2)c2ccc(N(C)C)cc2)cc1 [crystal violet],,penetrated the tissue to the greatest extent
